Experimental findings from US8008487B2, “Substituted thieno[2,3-D]pyrimidines as fungicides” (priority 2004, dated 2011) are described below.

SMILES strings stand for the structures.

Type in all cases: in vivo
One experiment deals with Leptosphaeria nodorum. As to the kind of experiment: Glume Blotch of Wheat (LEPTNO), whole-plant fungicide test. As to conditions: one-day protectant test; for pest or weed control at 100 ppm / pest or weed control at 200 ppm: Parastagonospora nodorum, 24 h, read-out: LEPTNO percent control of disease; for pest or weed control at 100 ppm: 100 ppm (footnote a); for pest or weed control at 200 ppm: foliar; for pest or weed control at 200 ppm / LEPTNO percent control of disease: 200 ppm on foliage.

For experiment [1], the system named is Puccinia recondita tritici. The experiment in a line: Leaf Rust of Wheat (PUCCRT), whole-plant fungicide test. As to conditions: one-day protectant test; for pest or weed control at 100 ppm / pest or weed control at 200 ppm: Puccinia recondita, 24 h, read-out: PUCCRT percent control of disease; for pest or weed control at 100 ppm: 100 ppm (footnote a); for pest or weed control at 200 ppm: foliar; for pest or weed control at 200 ppm / PUCCRT percent control of disease: 200 ppm on foliage.

Another experiment concerns Colletotricum lagenarium. As to the kind of experiment: Cucumber Anthracnose (COLLLA), whole-plant fungicide test. The conditions noted are these: 200 ppm on foliage, one-day protectant test; for pest or weed control at 200 ppm: Cucumis sativus, foliar, 24 h, read-out: COLLLA percent control of disease.
The next experiment has as its system Erysiphe cichoracaerum. As to the kind of experiment: Cucumber Powdery Mildew (ERYSCI), whole-plant fungicide test. The conditions noted are these: 200 ppm on foliage, one-day protectant test; for pest or weed control at 200 ppm: Erysiphe, foliar, 24 h, read-out: ERYSCI percent control of disease.
The subject of a further experiment is Magnaporthe grisea. As to the kind of experiment: whole plant or invertebrate. The conditions noted are these: for pest or weed control at 200 ppm: Pyricularia oryzae, in Oryza sativa, foliar, 24 h, read-out: PYRIOR percent control of disease, 200 ppm on foliage, rice, one-day protectant test; for PYRIOR percent control of disease: 200 ppm on foliage, rice, one-day protectant test.

For a further experiment, the system named is Phytophthora infestans. As to the kind of experiment: whole plant or invertebrate. As to conditions: for pest or weed control at 200 ppm: Phytophthora infestans, in Solanum lycopersicum, foliar, 24 h, read-out: PHYTIN percent control of disease, 200 ppm on foliage, tomato, one-day protectant test; for PHYTIN percent control of disease: 200 ppm on foliage, tomato, one-day protectant test.

As for `CC(Nc1ncnc2scc(Cl)c12)c1ccc2oc(CC(C)(C)C)nc2c1` (stereo not drawn) [Compound 1a], the pest or weed control at 100 ppm was in the range of 50 to 79% with Leptosphaeria nodorum and 80 to 100% in experiment [1].
In the case of `Clc1csc2ncnc(NCCc3ccc4ccccc4c3)c12` [Compound 2a], the pest or weed control at 200 ppm fell in the range of 0 to 49% in the experiment on Leptosphaeria nodorum; 0 to 49% in the experiment on Colletotricum lagenarium; 80 to 100% with Erysiphe cichoracaerum; 80 to 100% in the experiment with Magnaporthe grisea; 80 to 100% in the experiment with Phytophthora infestans; 80 to 100% in experiment [1].
Consider `CC(Nc1ncnc2scc(Cl)c12)c1cccc2ccccc12` (stereo not drawn) [Compound 3a], for which the pest or weed control at 200 ppm was in the range of 0 to 49% in the experiment with Leptosphaeria nodorum; 0 to 49% in the experiment with Colletotricum lagenarium; 80 to 100% in the experiment on Erysiphe cichoracaerum; 80 to 100% with Magnaporthe grisea; 0 to 49% with Phytophthora infestans; 80 to 100% in experiment [1].
As for `CC(C)(C)OC(=O)c1ccc(CNc2ncnc3scc(Cl)c23)cc1` [Compound 4a], the pest or weed control at 200 ppm in the experiment with Leptosphaeria nodorum fell in the range of 0 to 49%; in the experiment on Colletotricum lagenarium, 0 to 49%; in the experiment with Erysiphe cichoracaerum, 0 to 49%; in the experiment on Magnaporthe grisea, 50 to 79%; in the experiment on Phytophthora infestans, 0 to 49%; in experiment [1] it was 0 to 49%.
As for `CC(Nc1ncnc2scc(Cl)c12)c1ccc(N2CCOCC2)cc1` (stereo not drawn) [Compound 7a], the pest or weed control at 200 ppm with Leptosphaeria nodorum lay within 0 to 49%; in the experiment on Colletotricum lagenarium, 50 to 79%; in the experiment on Erysiphe cichoracaerum, 80 to 100%; in the experiment on Magnaporthe grisea it was 80 to 100%; with Phytophthora infestans, 80 to 100%; in experiment [1] it was 80 to 100%.
Turning to `Clc1csc2ncnc(NCCc3ccc(N4CCOCC4)cc3)c12` [Compound 8a], the pest or weed control at 100 ppm with Leptosphaeria nodorum lay within 50 to 79%; in experiment [1] it was 80 to 100%.
For `CC(Nc1ncnc2scc(Cl)c12)c1cnccn1` (stereo not drawn) [Compound 23], the pest or weed control at 200 ppm is 0 to 49% with Leptosphaeria nodorum; 0 to 49% in the experiment with Colletotricum lagenarium; 80 to 100% in the experiment on Erysiphe cichoracaerum; 50 to 79% in the experiment on Magnaporthe grisea; 0 to 49% in the experiment on Phytophthora infestans; 80 to 100% in experiment [1].
Regarding `CC(C)c1ccc(C(C)Nc2ncnc3scc(Cl)c23)cc1` (stereo not drawn) [Compound 24], the “LEPTNO percent control of disease” value in the experiment on Leptosphaeria nodorum is “* (* is 0-49 percent control of disease)”. Further, the pest or weed control at 200 ppm in the experiment on Colletotricum lagenarium lay in the range of 0 to 49%. Also, in the experiment with Erysiphe cichoracaerum, the “ERYSCI percent control of disease” value was “* (* is 0-49 percent control of disease)”. In addition, the “PYRIOR percent control of disease” value in the experiment with Magnaporthe grisea was “** (** is 50-79 percent control of disease)”. Further, in the experiment on Phytophthora infestans, the “PHYTIN percent control of disease” value was “* (* is 0-49 percent control of disease)”. Besides, the “PUCCRT percent control of disease” value in experiment [1] is recorded as “* (* is 0-49 percent control of disease)”.
Take `CC(C)c1ccc(C(C)Nc2ncnc3scc(Cl)c23)cc1` (stereo not drawn) [Compound 25]: the “LEPTNO percent control of disease” value in the experiment on Leptosphaeria nodorum is “*** (*** is 80-100 percent control of disease)”. In addition, in the experiment on Colletotricum lagenarium, the “COLLLA percent control of disease” value was “* (* is 0-49 percent control of disease)”. For the same molecule, the “ERYSCI percent control of disease” value in the experiment on Erysiphe cichoracaerum is given as “*** (*** is 80-100 percent control of disease)”. In the experiment on Magnaporthe grisea, the “PYRIOR percent control of disease” value was “*** (*** is 80-100 percent control of disease)”. Further, the “PHYTIN percent control of disease” value in the experiment on Phytophthora infestans is “*** (*** is 80-100 percent control of disease)”. In addition, in experiment [1], the “PUCCRT percent control of disease” value is on record as “*** (*** is 80-100 percent control of disease)”.
Regarding `CC(Nc1ncnc2scc(Cl)c12)c1ccc(C(F)(F)F)cc1` (stereo not drawn) [Compound 26], the pest or weed control at 200 ppm in the experiment on Leptosphaeria nodorum was 80 to 100%; in the experiment with Colletotricum lagenarium it was 0 to 49%; with Erysiphe cichoracaerum, 80 to 100%; in the experiment on Magnaporthe grisea, 80 to 100%; in the experiment on Phytophthora infestans it was 0 to 49%; in experiment [1] it was 80 to 100%.
For `COc1ccc(C(C)Nc2ncnc3scc(Cl)c23)cc1` (stereo not drawn) [Compound 27], the pest or weed control at 200 ppm was in the range of 50 to 79% in the experiment with Leptosphaeria nodorum; 0 to 49% in the experiment with Colletotricum lagenarium; 80 to 100% in the experiment with Erysiphe cichoracaerum; 80 to 100% in the experiment with Magnaporthe grisea; 0 to 49% in the experiment with Phytophthora infestans; 80 to 100% in experiment [1].
In the case of `COc1ccc(OCCNc2ncnc3scc(Cl)c23)cc1` [Compound 64], the pest or weed control at 200 ppm in the experiment on Leptosphaeria nodorum was 0 to 49%; with Colletotricum lagenarium, 0 to 49%; in the experiment with Erysiphe cichoracaerum, 0 to 49%; in the experiment with Magnaporthe grisea it was 80 to 100%; with Phytophthora infestans, 0 to 49%; in experiment [1] it was 80 to 100%.
`CC(Nc1ncnc2scc(Br)c12)c1cnc(OCC(F)(F)F)nc1` (stereo not drawn) [Compound 67]: the pest or weed control at 200 ppm in the experiment on Leptosphaeria nodorum was in the range of 0 to 49%; with Colletotricum lagenarium, 0 to 49%; with Erysiphe cichoracaerum, 0 to 49%; in the experiment on Magnaporthe grisea, 0 to 49%; in the experiment with Phytophthora infestans, 0 to 49%; in experiment [1], 80 to 100%.
With `COc1ccc(C(C)Nc2ncnc3scc(I)c23)cc1` (stereo not drawn) [Compound 70, (5-Iodothieno[2,3-d]pyrimidin-4-yl)-[1-(4-methoxyphenyl)ethyl]amine], the pest or weed control at 200 ppm in the experiment with Leptosphaeria nodorum was in the range of 0 to 49%; in the experiment with Colletotricum lagenarium, 0 to 49%; with Erysiphe cichoracaerum, 0 to 49%; in the experiment with Magnaporthe grisea, 50 to 79%; with Phytophthora infestans, 0 to 49%; in experiment [1], 0 to 49%.
In the case of `COc1ncc(C(C)Nc2ncnc3scc(Cl)c23)s1` (stereo not drawn) [Compound 72], the pest or weed control at 200 ppm lay in the range of 0 to 49% with Leptosphaeria nodorum; 0 to 49% with Colletotricum lagenarium; 80 to 100% in the experiment on Erysiphe cichoracaerum; 80 to 100% with Magnaporthe grisea; 0 to 49% in the experiment on Phytophthora infestans; 80 to 100% in experiment [1].
`CC(Nc1ncnc2scc(Cl)c12)c1ccc(OCC(F)(F)F)cc1` (stereo not drawn) [Compound 73]: the pest or weed control at 200 ppm fell in the range of 50 to 79% in the experiment with Leptosphaeria nodorum; 80 to 100% with Colletotricum lagenarium; 80 to 100% in the experiment with Erysiphe cichoracaerum; 80 to 100% with Magnaporthe grisea; 0 to 49% with Phytophthora infestans; 80 to 100% in experiment [1].
As for `CC(Nc1ncnc2scc(Cl)c12)c1ccc(OCC(F)F)nc1` (stereo not drawn) [Compound 74], the pest or weed control at 200 ppm in the experiment with Leptosphaeria nodorum fell in the range of 80 to 100%; with Colletotricum lagenarium, 80 to 100%; with Erysiphe cichoracaerum, 80 to 100%; with Magnaporthe grisea, 80 to 100%; with Phytophthora infestans it was 0 to 49%; in experiment [1] it was 80 to 100%.
`CC(Nc1ncnc2scc(Cl)c12)c1ccc(OCCF)nc1` (stereo not drawn) [Compound 75]: the pest or weed control at 200 ppm in the experiment with Leptosphaeria nodorum fell in the range of 0 to 49%; with Colletotricum lagenarium, 50 to 79%; with Erysiphe cichoracaerum it was 80 to 100%; with Magnaporthe grisea, 80 to 100%; in the experiment with Phytophthora infestans, 0 to 49%; in experiment [1], 80 to 100%.
Consider `CCC(Nc1ncnc2scc(Cl)c12)c1ccc(OC)nc1` (stereo not drawn) [Compound 79], for which the pest or weed control at 200 ppm is 0 to 49% with Leptosphaeria nodorum; 0 to 49% with Colletotricum lagenarium; 0 to 49% in the experiment on Erysiphe cichoracaerum; 80 to 100% with Magnaporthe grisea; 0 to 49% with Phytophthora infestans; 80 to 100% in experiment [1].
`CC(Nc1ncnc2scc(Cl)c12)c1cccnc1Cl` (stereo not drawn) [Compound 80]: the pest or weed control at 200 ppm lay within 0 to 49% with Leptosphaeria nodorum; 50 to 79% in the experiment with Colletotricum lagenarium; 80 to 100% in the experiment on Erysiphe cichoracaerum; 80 to 100% in the experiment with Magnaporthe grisea; 0 to 49% with Phytophthora infestans; 80 to 100% in experiment [1].
For `COCC1CC1C(C)Nc1ncnc2scc(Cl)c12` (stereo not drawn) [Compound 81], the pest or weed control at 100 ppm in experiment [1] was in the range of 80 to 100%.
Turning to `CC(Nc1ncnc2scc(Cl)c12)c1ccc(OC(F)(F)F)cc1` (stereo not drawn) [Compound 82], the pest or weed control at 200 ppm in the experiment on Leptosphaeria nodorum was 0 to 49%; in the experiment on Colletotricum lagenarium it was 0 to 49%; in the experiment on Erysiphe cichoracaerum, 80 to 100%; with Phytophthora infestans, 0 to 49%; in experiment [1] it was 80 to 100%.
With `COc1cc(F)ccc1C(C)Nc1ncnc2scc(Cl)c12` (stereo not drawn) [Compound 83], the pest or weed control at 200 ppm is 0 to 49% in the experiment on Leptosphaeria nodorum; 0 to 49% with Colletotricum lagenarium; 80 to 100% in the experiment on Erysiphe cichoracaerum; 0 to 49% with Phytophthora infestans; 80 to 100% in experiment [1].
`CC(Nc1ncnc2scc(Cl)c12)c1ccc(OCC(F)(F)F)nc1` (stereo not drawn) [Compound 84]: in experiment [1], the pest or weed control at 100 ppm was 80 to 100%.
On to `COc1ccc(COCC2CC2C(C)Nc2ncnc3scc(Cl)c23)cc1` (stereo not drawn) [Compound 85], for which the pest or weed control at 200 ppm fell in the range of 0 to 49% in the experiment on Leptosphaeria nodorum; 0 to 49% in the experiment on Colletotricum lagenarium; 80 to 100% in the experiment with Erysiphe cichoracaerum; 80 to 100% in the experiment on Phytophthora infestans; 80 to 100% in experiment [1].
In the case of `COc1ccc(OCC2CC2C(C)Nc2ncnc3scc(Cl)c23)cc1` (stereo not drawn) [Compound 86], the pest or weed control at 200 ppm with Leptosphaeria nodorum fell in the range of 50 to 79%; in the experiment on Colletotricum lagenarium, 80 to 100%; in the experiment on Erysiphe cichoracaerum it was 80 to 100%; with Magnaporthe grisea it was 80 to 100%; in the experiment on Phytophthora infestans, 0 to 49%; in experiment [1] it was 80 to 100%.
